Several values for one entry are separate records, joined by “and”; a condition that tells them apart may be missing. Identical values can stand only once. Like-named read-outs stand apart in the source and are kept apart here.
Tests used:
[1] = Biliary excretion after intravenous infusion in rats; type: in vivo, Sprague-Dawley rats; conditions: 1-min iv infusion 10 mg/kg, 0–24 h bile, n = 3
Procedure: The jugular vein of each rat was cannulated. The abdomen was opened and the bile duct was cannulated with polyethylene tubing. The incision was closed with surgical sutures and each rat was kept warm under an electric light. Each rat was maintained in the supine position during the entire experiment. […] Bile samples were collected over various time periods, from 0–1, 1–2, 2–4, 4–6, and 6–24 h.

[2] = Pharmacokinetics after oral administration of tofacitinib to rats; type: in vivo, Sprague-Dawley rats; conditions: for CL renal / Cmax / Tmax / bioavailability: male, Sprague-Dawley; for CL renal / Cmax / Tmax / bioavailability / AUC: rat; for CL renal: plasma and urine; for Cmax / Tmax / bioavailability / AUC: plasma; for bioavailability: dose-normalized oral AUC / AUC of 10 mg/kg iv, read-out: F (bioavailability); for Dose-normalized AUC: normalized to 10 mg/kg; for AUC: male Sprague-Dawley rats
Procedure: The pretreatment and surgical procedures for oral and intravenous administration were similar to those described previously. For oral administration, the rats were fasted overnight with free access to water. The rats were anesthetized with ketamine (200 mg/kg), and their carotid arteries were cannulated using polyethylene tubing (Clay Adams, Parsippany, NJ, USA) for blood sampling. For intravenous administration, the rats were anesthetized with ketamine (200 mg/kg), and their jugular veins and carotid arteries were cannulated for drug administration and blood sampling, respectively. Rats were allowed to recover for 4–5 h after surgical procedures. The rats were not restrained during the experimental period and had free access to water and food.
Blood samples (110–220 μL) were collected via the carotid artery at times 0 (prior to drug administration), 5, 15, 30, 45, 60, 90, 120, 180, 240, 360, 480, 600, and 720 min. Urine and gastrointestinal tract samples were also obtained over 24 h were processed as described above for the corresponding samples collected after intravenous administration.
Two microliters of hydrocortisone (5 mg/mL) and 40 μL of 20% ammonia solution were added to 100 μL aliquots of biological samples and vortex-mixed for 30 s using a vortex mixer. Each solution was extracted with 1.5 mL of ethyl acetate by centrifugation at 12,000 rpm for 5 min. The organic layer was collected and dried (Dry Thermobath, Eyela, Tokyo, Japan) under a gentle stream of nitrogen gas at 40 °C. The samples were reconstituted in 130 μL of 20% acetonitrile, and 50 μL of resuspended samples were analyzed by HPLC [12].
The mobile phase consisted of a 69.5:30.5 (v/v) mixture of 10 mM ammonium acetate buffer (pH 5.0) and acetonitrile, respectively, with a flow rate of 1.0 mL/min. Column effluent was monitored by a UV detector at 287 nm.
Pharmacokinetic parameters, including AUC, apparent volume of distribution at steady state (Vss), mean residence time (MRT), and time-averaged total body (CL), renal (CLR), and nonrenal (CLNR) clearances, were calculated by noncompartmental analysis (WinNonlin, Pharsight Corporation, Mountain View, CA, USA) using standard methods. AUC values were calculated using the trapezoidal rule–extrapolation method. The peak plasma concentration (Cmax) and time to reach Cmax (Tmax) were obtained directly from the experimental data. The mean values of clearance, terminal half-life, and Vss were calculated using the harmonic mean method.

[3] = cited from earlier work
[4] = humans, cited from earlier work

C[C@@H]1CCN(C(=O)CC#N)C[C@@H]1N(C)c1ncnc2[nH]ccc12 [tofacitinib, 3-[(3R,4R)-4-methyl-3-[methyl-(7H-pyrrolo[2,3-day]pyrimidin-4-l)amino]piperidin-1-yl]-3-oxopropanenitril]
Excreted in bile [1]: 0.703 ± 0.303 % of the intravenous dose
Time to detection in plasma after oral administration ([2]; all four oral doses): ≤ 5 min
Ae0–24 h ([2]; all oral doses): less than 17.2%
F in rats ([2]; based on calculations using the same intravenous and oral doses): 29.1–33.8%
CL renal ([2]; oral 10 mg/kg): 11.6 ± 2.87 mL/min/kg
CL renal ([2]; oral 20 mg/kg): 6.97 ± 3.95 mL/min/kg
CL renal ([2]; oral 50 mg/kg): 7.61 ± 2.82 mL/min/kg
CL renal ([2]; oral 100 mg/kg): 3.37 ± 2.52 mL/min/kg
Cmax ([2]; oral 10 mg/kg): 1130 ± 774 ng/mL
Tmax ([2]; oral 10 mg/kg): 15.7 min
bioavailability ([2]; oral 10 mg/kg): 29.1%
Cmax ([2]; oral 20 mg/kg): 3130 ± 1270 ng/mL
Tmax ([2]; oral 20 mg/kg): 15.7 min
bioavailability ([2]; oral 20 mg/kg): 39.3%
Cmax ([2]; oral 50 mg/kg): 5620 ± 2180 ng/mL
Tmax ([2]; oral 50 mg/kg): 34.4 min
bioavailability ([2]; oral 50 mg/kg): 69.7%
Cmax ([2]; oral 100 mg/kg): 13100 ± 5480 ng/mL
Tmax ([2]; oral 100 mg/kg): 170 min
bioavailability ([2]; oral 100 mg/kg): 119%
Ae0–24 h ([2]; oral 10 mg/kg): 11.3 ± 4.60 % of dose
Orally administered dose absorbed from the gastrointestinal tract ([2]; oral 10 mg/kg): approximately 96.8%
Unabsorbed fraction (Funabs) ([2]; oral 10 mg/kg, at 24 h): 3.16%
Dose-normalized AUC ([2]; oral 10 mg/kg): 99.4 µg·min/mL and 99.4 ± 35.5 µg·min/mL
GI24 h (recovered unchanged from entire gastrointestinal tract at 24 h) ([2]; oral 10 mg/kg, 10 mg/kg): 3.16 % of dose and 3.16 ± 5.12 % of dose
Orally administered dose eliminated by first-pass metabolism ([2]; oral 10 mg/kg, 100% − (3.16% + 29.1%)): approximately 67.7%
Ae0–24 h ([2]; oral 20 mg/kg): 10.0 ± 6.51 % of dose
GI24 h (recovered unchanged from entire gastrointestinal tract at 24 h) ([2]; oral 20 mg/kg): 3.13 ± 3.27 % of dose
Dose-normalized AUC ([2]; oral 20 mg/kg): 135 µg·min/mL and 135 ± 26.9 µg·min/mL
Ae0–24 h ([2]; oral 50 mg/kg): 17.2 ± 3.98 % of dose
GI24 h (recovered unchanged from entire gastrointestinal tract at 24 h) ([2]; oral 50 mg/kg): 2.77 ± 3.96 % of dose
Dose-normalized AUC ([2]; oral 50 mg/kg): 238 µg·min/mL and 238 ± 56.0 µg·min/mL
Ae0–24 h ([2]; oral 100 mg/kg): 13.0± 9.47 % of dose
GI24 h (recovered unchanged from entire gastrointestinal tract at 24 h) ([2]; oral 100 mg/kg): 0.772± 0.905 % of dose
Dose-normalized AUC ([2]; oral 100 mg/kg): 407 µg·min/mL and 407 ± 179 µg·min/mL
Slope of plot of AUC versus dose ([2]; oral, dose and AUC ratios based on 10 mg/kg): 4.65
AUC ([2]; oral 10 mg/kg): 1660 ng·h/mL
AUC ([2]; oral 20 mg/kg): 4480 ng·h/mL
AUC ([2]; oral 50 mg/kg): 19900 ng·h/mL
AUC ([2]; oral 100 mg/kg): 67900 ng·h/mL
AUC of tofacitinib reduced in pretreated rats ([3]; pretreated with dexamethasone, inducer of CYP3A1/2): 56%
AUC of tofacitinib greater in pretreated rats ([3]; pretreated with fluconazole, inhibitor of CYP2C11): 39%
AUC of tofacitinib greater in pretreated rats ([3]; pretreated with ketoconazole, inhibitor of CYP3A1/2): 46%
AUC of tofacitinib reduced in pretreated rats ([3]; pretreated with rifampin, inducer of CYP2C11): 26%
Terminal half-life [4]: 192 min
Volume of distribution [4]: 87 L
Bound to plasma proteins ([4]; oral): 40%

Reference: article PMC6681021 (Pharmaceutics, 2019)
